3 compounds from patent publication US12692547B2, “Methods of treating cancers containing fusion genes” (UNIVERSITY OF PITTSBURGH—OF THE COMMONWEALTH SYSTEM OF …, priority 2016, dated 2026) can be followed below.

One test relates to HUH7 cells. Description: Cell death by Annexin V and propidium iodide staining, HUH7 cells and MAN2A1-FER knockout counterpart. Particulars: Homo sapiens. It counts as cell-based. The source says: (§1) FIG. 18. […] Factions of cell death were then quantified by Annexin V and propridium iodide staining. […] Factions of cell death were then quantified by Annexin V and propridium iodide staining. […] Factions of cell death were then quantified by Annexin V and propridium iodide staining.
(§2) Since the kinase activity of MAN2A1-FER and EGFR activation are the drivers of MAN2A1-FER oncogenic activity, it is of interest to examine whether inhibition of the kinase activity of MAN2A1-FER or EGFR interrupts the oncogenic activity of MAN2A1-FER, and thus the growth of the tumors.

The test system of another test is HUH7 cells xenograft. As to the kind of experiment: Kinase inhibitor treatment of SCID mice xenografted with HUH7 or HUH7/ko cells. It is filed as in vivo, mouse. Particulars: for reduction of final tumor size: HUH7, MAN2A1-FER present, vs DMSO controls, crizotinib 12.5 mg/kg, canertinib 10 mg/kg, 3 times a week, peritoneal injection. An excerpt:
(§3) Treatment of Severe Combined Immunodeficient Mice Xenografted With Cancer Cells. For kinase inhibitor treatment experiments, PMF, GMF, HUH7, and HUH7/ko cells (2×10^7 cells) were xenografted into the subcutaneous region of SCID mice. […] Serial sections of formalin-fixed, paraffin-embedded lung, brain, liver, kidney, vertebra, and lymph node specimens were collected, stained with H&E, and examined microscopically.

A further test has as its system A-172 cells xenograft. Description: Kinase inhibitor treatment of SCID mice xenografted with A-172 (GMF) cells. It is filed as in vivo, mouse. The following applies: for reduction of final tumor size: A-172, MAN2A1-FER present, vs DMSO controls, crizotinib 12.5 mg/kg, canertinib 10 mg/kg, 3 times a week, peritoneal injection.
Description: as §3

The subject of test [1] is GMF cells (A-172 with inducible MAN2A1-FER-FLAG). Description: Cell death by Annexin V and propidium iodide staining, GMF cells. It counts as cell-based. The following applies: Homo sapiens, A 172, GMF cells.
Description: as §1, §2

The subject of a further test is PC3 cells xenograft. As to the kind of experiment: Kinase inhibitor treatment of SCID mice xenografted with PC3 (PMF) cells. Particulars: for reduction of final tumor size: PC3, MAN2A1-FER present, vs DMSO controls, crizotinib 12.5 mg/kg, canertinib 10 mg/kg, 3 times a week, peritoneal injection. It counts as in vivo, mouse.
Description: as §3

For test [2], the system named is PMF cells (PC3 with inducible MAN2A1-FER-FLAG). As to the kind of experiment: Cell death by Annexin V and propidium iodide staining, PMF cells. The following applies: Homo sapiens. It counts as cell-based.
Description: as §1, §2

For test [3], the system named is PC3, A-172 and HUH7 xenografted tumors. As to the kind of experiment: Metastasis and mortality of treated SCID mice, all tumors pooled. The following applies: for mortality of xenografted mice: tumors positive for MAN2A1-FER. It counts as in vivo, mouse.
Description: as §3

Test [4] concerns PC3, A-172 or HUH7 with or without MAN2A1-FER. As to the kind of experiment: Killing of cancer cell lines with or without MAN2A1-FER (summary over cell lines). It is filed as cell-based. Particulars: Homo sapiens, read-out: IC50 values (50% inhibitory concentrations).
Description: as §1, §2

The next test addresses T1, GST-MAN2A1-FER (Homo sapiens, UniProt P16591).
T1 construct: while leaving the tyrosine kinase domain in FER largely intact; MAN2A1 N-terminal 703 amino acids (fusion partner, itself N-terminally GST-tagged); made in house; host or cells: Escherichia coli BL21; the other entry of the earlier key: MAN2A1 (Q16706, Alpha-mannosidase 2)
Description: Phosphorylation of HisTAG-EGFR aa1-650 by GST-MAN2A1-FER with excessive peptide. The following applies: excessive amount of peptide; HisTAG-EGFR aa1-650 substrate. It is filed as biochemical.

Setting [5] is: Huh-7, HUH7 KO (MAN2A1-FER knockout).
Setting [6] is: Huh-7, HUH7 WT (MAN2A1-FER positive).
The mark [7] stands for this setting: A-172, MAN2A1-FER not present, same regimen.
Where [8] appears, read: MAN2A1-FER negative cells, control 1/18.
[9] abbreviates: all tumors (PC3, A-172, HUH7), MAN2A1-FER present, controls 11/18.

Bounds are passed on as bounds.

T1 sequence (P16591 with tags, fused parts or gaps): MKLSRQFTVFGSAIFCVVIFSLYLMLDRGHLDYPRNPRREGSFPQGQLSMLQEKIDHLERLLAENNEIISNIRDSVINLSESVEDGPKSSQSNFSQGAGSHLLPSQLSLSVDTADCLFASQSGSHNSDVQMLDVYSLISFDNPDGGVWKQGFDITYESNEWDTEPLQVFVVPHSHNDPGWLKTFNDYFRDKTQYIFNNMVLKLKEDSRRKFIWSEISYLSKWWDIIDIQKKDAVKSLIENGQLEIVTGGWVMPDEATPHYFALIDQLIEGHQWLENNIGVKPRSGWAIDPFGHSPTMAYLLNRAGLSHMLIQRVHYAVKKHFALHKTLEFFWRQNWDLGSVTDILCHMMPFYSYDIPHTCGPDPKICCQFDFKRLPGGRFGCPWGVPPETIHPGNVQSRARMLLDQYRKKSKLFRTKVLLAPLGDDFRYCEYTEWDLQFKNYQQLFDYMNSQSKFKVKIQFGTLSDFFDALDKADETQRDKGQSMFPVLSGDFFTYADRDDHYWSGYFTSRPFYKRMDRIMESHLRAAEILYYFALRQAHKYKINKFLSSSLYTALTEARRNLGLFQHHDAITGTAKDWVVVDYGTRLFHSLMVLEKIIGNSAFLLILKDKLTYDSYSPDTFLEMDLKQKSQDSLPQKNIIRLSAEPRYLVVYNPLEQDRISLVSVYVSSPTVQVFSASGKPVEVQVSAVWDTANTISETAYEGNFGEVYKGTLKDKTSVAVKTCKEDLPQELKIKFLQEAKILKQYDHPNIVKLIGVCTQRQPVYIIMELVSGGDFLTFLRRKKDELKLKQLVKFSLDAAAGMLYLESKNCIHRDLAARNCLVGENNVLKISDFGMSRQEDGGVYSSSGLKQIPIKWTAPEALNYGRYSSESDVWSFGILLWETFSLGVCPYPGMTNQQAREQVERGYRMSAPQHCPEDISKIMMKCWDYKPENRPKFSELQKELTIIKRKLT

Take `C=CC(=O)Nc1cc2c(Nc3ccc(F)c(Cl)c3)ncnc2cc1OCCCN1CCOCC1` [canertinib]: the IC50 in the test with HUH7 cells (setting [5]) was found to be 0.0303 µM; with HUH7 cells (setting [6]), 0.0147 µM; in test [1] (Tet+ (MAN2A1-FER-FLAG induced)), 0.0107 µM; in [1] (Tet− (no MAN2A1-FER-FLAG)), 0.0265 µM; in test [2] (Tet+ (MAN2A1-FER-FLAG induced)), 0.0109 µM; in test [2] (Tet− (no MAN2A1-FER-FLAG)), 0.0251 µM. For the same compound, in test [4], the IC50 is less than 0.015 µM. Besides, the “reduction of tumor size” value with HUH7 cells xenograft (HUH7, MAN2A1-FER not present (knockout), same regimen) was determined as 40.2%; in the test on A-172 cells xenograft (setting [7]), 19.2%; in the test on PC3 cells xenograft (PC3, MAN2A1-FER not present, same regimen), 32.0%. Further, the “reduction of final tumor size” value in the test with HUH7 cells xenograft was 81.7%; in the test with A-172 cells xenograft, 73.2%; in the test with PC3 cells xenograft, 85.0%. The “metastasis (mice with metastasis / mice)” value is on record as 2/18 in [3] (setting [8]) and 0/18 in [3] (setting [9]). Further, in test [3], the “mortality of xenografted mice” value is recorded as “completely eliminated the mortality”.

Consider FLKTIQEVAGYVLIALNTVER [peptide 3], for which, in the test with GST-MAN2A1-FER, the “blocking of phosphorylation of EGFR N-terminus by GST-MAN2A1-FER” value is on record as “partially blocked”.

Take `C[C@@H](Oc1cc(-c2cnn(C3CCNCC3)c2)cnc1N)c1c(Cl)ccc(F)c1Cl` [crizotinib]: the IC50 with HUH7 cells (setting [5]) was found to be 0.0529 µM; in the test on HUH7 cells (setting [6]), 0.0289 µM; in test [1] (Tet+ (MAN2A1-FER-FLAG induced)) it was 0.0331 µM; in [1] (Tet− (no MAN2A1-FER-FLAG)), 0.0645 µM; in test [2] (Tet+ (MAN2A1-FER-FLAG induced)) it was 0.0208 µM; in [2] (Tet− (no MAN2A1-FER-FLAG)) it was 0.0433 µM. Also, the “reduction of final tumor size” value in the test with HUH7 cells xenograft stood at 80.7%; in the test with A-172 cells xenograft, 67.6%; with PC3 cells xenograft, 78.6%. In addition, the “increase of tumor size” value with A-172 cells xenograft (setting [7]) was determined as 4%. In addition, the “metastasis (mice with metastasis / mice)” value in test [3] (setting [8]) was 2/18; in test [3] (setting [9]) it was 0/18. Also, the “mortality of xenografted mice” value in test [3] is “completely eliminated the mortality”.
